Assays:
Type in all cases: in vivo, human
[1] = system: plasma IL-1β; assay: Plasma IL-1β level by ELISA in the double-blind clinical trial; conditions: schizophrenic patients, FIG. 3A
Source text: (§1) One hundred and thirty-seven Han Chinese schizophrenic patients and 67 Han Chinese healthy controls (age range: 20-59 years old) were recruited from the Department of Psychiatry at National Cheng Kung University Hospital and the National Defense Medical Center. All patients were screened for being used. The Chinese version of the SADS-L, which has good reliability and validity, was used to screen all participants for psychiatric conditions and whether they fit the DSM-IV diagnostic criteria for schizophrenia without any comorbidity. […]
(§2) Ten milliliters of whole blood was drawn and collected from each participant's antecubital vein at the screening visit (V), 0, 1, 2, 4, 6, 8, and 11 weeks. […] Plasma cytokine, CRP and BDNF concentrations were quantified using enzyme-linked immunosorbent assays (ELISA). A kit (Quantikine Human Cytokine kit; R&D Systems) and an ELISA reader (SpectraMax-M2; Molecular Devices) ELISA reader were used to analysis plasma IL-1β, TNF-α, CRP, and BDNF levels. […]

[2] = system: plasma CRP; assay: Plasma CRP level by ELISA in the double-blind clinical trial; conditions: schizophrenic patients, FIG. 3C
Source text: One hundred and thirty-seven Han Chinese schizophrenic patients and 67 Han Chinese healthy controls (age range: 20-59 years old) were recruited from the Department of Psychiatry at National Cheng Kung University Hospital and the National Defense Medical Center. All patients were screened for being used. The Chinese version of the SADS-L, which has good reliability and validity, was used to screen all participants for psychiatric conditions and whether they fit the DSM-IV diagnostic criteria for schizophrenia without any comorbidity. Exclusion conditions were: 1) pregnant or nursing women; 2) women of childbearing potential not using adequate contraception as per investigator judgment or not willing to use contraception for the duration of study; 3) patients who had used dextromethorphan, other selective cyclooxygenase 2 inhibitors, or other anti-inflammatory medication within 1 week before the first dose of double-blind medication; 4) a major mental illness other than schizophrenia, including alcoholism and illegal substance use disorder; 5) a clinically significant medical condition, e.g., cardiac, hepatic, or renal disease with current evidence of poor control; 6) patient who had undergone electroconvulsive therapy within 4 weeks before the first dose of double-blind medication; 7) SGOT, SGPT, BUN, and creatinine levels/an SGOT, SGPT, BUN, or creatinine level greater than 3-fold the upper limit of normal. All the healthy controls were free of major and minor mental illness. […]
as §2

[3] = system: plasma TNF-α; assay: Plasma TNF-α level by ELISA in the double-blind clinical trial; conditions: schizophrenic patients, FIG. 3B
Source text: One hundred and thirty-seven Han Chinese schizophrenic patients and 67 Han Chinese healthy controls (age range: 20-59 years old) were recruited from the Department of Psychiatry at National Cheng Kung University Hospital and the National Defense Medical Center. All patients were screened for being used. The Chinese version of the SADS-L, which has good reliability and validity, was used to screen all participants for psychiatric conditions and whether they fit the DSM-IV diagnostic criteria for schizophrenia without any comorbidity. Exclusion conditions were: 1) pregnant or nursing women; 2) women of childbearing potential not using adequate contraception as per investigator judgment or not willing to use contraception for the duration of study; 3) patients who had used dextromethorphan, other selective cyclooxygenase 2 inhibitors, or other anti-inflammatory medication within 1 week before the first dose of double-blind medication; 4) a major mental illness other than schizophrenia, including alcoholism and illegal substance use disorder; 5) a clinically significant medical condition, e.g., cardiac, hepatic, or renal disease with current evidence of poor control; 6) patient who had undergone electroconvulsive therapy within 4 weeks before the first dose of double-blind medication; 7) SGOT, SGPT, BUN, and creatinine levels/an SGOT, SGPT, BUN, or creatinine level greater than 3-fold the upper limit of normal. All the healthy controls were free of major and minor mental illness. All research involving humans was reviewed and approved by the National Chung Kung University and National Defense Medical Center Institutional Review Boards before the study began.
This study was a double-blind, stratified, randomized, parallel-group, two-center clinical trial. The treatment was risperidone plus a double-blind add-on of randomly assigned DM or a placebo. Participants began the study immediately after they had been screened for eligibility (screening visit: V). The pre-treatment study phase consisted of a 7-day (V to 0 week) antipsychotic switch-over period for patients (patient hospitalized) who were taking oral antipsychotic medication other than risperidone alone at the screening, or who had been using depot medication for an entire cycle before the screening. […]
as §2

[4] = system: plasma BDNF; assay: Plasma BDNF level by ELISA in the double-blind clinical trial; conditions: schizophrenic patients, after 11 weeks of treatment; FIG. 3D
Source text: as §1, §2

Cc1nc2n(c(=O)c1CCN1CCC(c3noc4cc(F)ccc34)CC1)CCCC2 [Risp only, risperidone]
change in plasma IL-1β levels ([1]; after 11 weeks of treatment, risperidone 1-6 mg/day, DM 60 mg/day): significant decrease | time after which plasma IL-1β level fell [1]: 8 weeks | plasma CRP level at start (first value of 'from ... to') ([2]; before add-on treatment, mean±SEM): 2576.0±484.0 | plasma CRP level at end (second value of 'from ... to') ([2]; end of treatment, mean±SEM): 1946.0±369.6 | change in plasma CRP levels ([2]; over the study): tended to decrease but were not significantly different | plasma TNF-α levels at the end of the study ([3]; end of study (11 weeks) vs visit): significantly higher | course of plasma TNF-α levels during the study ([3]; visit to 11 weeks): rose significantly | time after which plasma TNF-α levels rose significantly [3]: 4 weeks | time of peak plasma TNF-α level [3]: 6 weeks | change in plasma BDNF levels [4]: did not change
